Measurements as given in patent US8580829B2 (Boehringer Ingelheim International GmbH, priority 2010, dated 2013).

What was measured:
[1] = molecular target: T1, recombinant human FLAP protein (Homo sapiens, UniProt P20292); assay: FLAP binding assay (Scintillation Proximity Assay, displacement of [125I]L-691,831); settings: recombinant human FLAP membranes, [125I]L-691,831 probe; read-out: FLAP SPA IC50
T1 construct: made in house; host or cells: Sf9 insect cells (100,000 x g membrane fraction)
T1 sequence (P20292 1-161): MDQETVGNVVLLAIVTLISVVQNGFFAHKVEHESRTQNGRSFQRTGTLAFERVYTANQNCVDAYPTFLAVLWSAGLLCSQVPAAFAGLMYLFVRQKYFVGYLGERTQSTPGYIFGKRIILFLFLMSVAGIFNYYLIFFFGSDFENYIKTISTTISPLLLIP
Procedure: Cell pellets produced from sf9 insect cells expressing recombinant human FLAP protein are resuspended in buffer A [15 mM Tris-HCl (pH 7.5), 2 mM MgCl2, 0.3 mM EDTA, 1 mM PMSF]. The cells are lysed with a Dounce homogenizer and the material is centrifuged at 10,000×g for 10 minutes. The supernatant is then collected and centrifuged at 100,000×g for 60 minutes. To prepare membrane protein for an assay, an aliquot of the 100,000×g pellet is resuspended in 1 ml of buffer A, Dounce homogenized, and finally subjected to polytron mixing (30 seconds). Membrane protein (25 μl, 5 μg) is mixed with WGA SPA beads (Amersham) and stirred for 1 h.

[2] = tested on: synthesis of LTB4 in human whole blood; assay: human whole blood LTB4 production inhibition assay; assay type: cell-based; settings: Homo sapiens, heparinized human whole blood, calcimycin 20 μM; read-out: hWB LTB4 IC50
Procedure: Compounds are additionally tested in a human whole blood assay to determine their ability to inhibit the synthesis of LTB4 in a cellular system. Compounds are combined with heparinized human whole blood and incubated for 15 minutes at 37° C. Calcimycin (20 μM final, prepared in phosphate-buffered saline, pH 7.4) is then added and the mixture is incubated for another 30 minutes at 37° C. The samples are centrifuged for 5 min at low speed (1500×g) and the plasma layer is removed. Plasma LTB4 concentrations are then measured using an antibody-based homogenous time-resolved fluorescence method (CisBio, Bedford, Mass.).

SMILES | IC50 [1] [µM] | IC50 [2] [µM]
COC(=O)c1cnc(-c2nc(C3(c4ccc(-c5cnc(N)nc5)cc4)CCC3)no2)cn1 [Example 1, 5-(3-{1-[4-(2-amino-pyrimidin-5-yl)-phenyl]-cyclobutyl}-1,2,4-oxadiazol-5-yl)-pyrazine-2-carboxylic acid methyl ester] | 0.0084 | 0.33
CCn1ncc(-c2nc(C3(c4ccc(-c5cnc(N)nc5)cc4)CCC3)no2)c1C [Example 2, 5-(4-{1-[5-(1-ethyl-5-methyl-1H-pyrazol-4-yl)-1,2,4-oxadiazol-3-yl]-cyclobutyl}-phenyl)-pyrimidin-2-ylamine] | 0.0022 | 0.1
Cn1cc(-c2nc(C3(c4ccc(-c5cnc(N)nc5)cc4)CCC3)no2)ccc1=O [Example 3, 5-(3-{1-[4-(2-Amino-pyrimidin-5-yl)-phenyl]-cyclobutyl}-1,2,4-oxadiazol-5-yl)-1-methyl-1H-pyridin-2-one] | 0.0056 | 0.35
Nc1ncc(-c2ccc(C3(c4noc(-c5cccnc5N)n4)CCC3)cc2)cn1 [Example 4, 5-(4-{1-[5-(2-Amino-pyridin-3-yl)-1,2,4-oxadiazol-3-yl]-cyclobutyl}-phenyl)-pyrimidin-2-ylamine] | 0.0046 | 0.72
Cc1cc(-c2nc(C3(c4ccc(-c5cnc(N)nc5)cc4)CCC3)no2)[nH]n1 [Example 5, 5-(4-{1-[5-(5-Methyl-2H-pyrazol-3-yl)-1,2,4-oxadiazol-3-yl]-cyclobutyl}-phenyl)-pyrimdin-2-ylamine] | 0.0024 | > 5
Cc1n[nH]cc1-c1nc(C2(c3ccc(-c4cnc(N)nc4)cc3)CCC2)no1 [Example 6, 5-(4-{1-[5-(3-Methyl-1H-pyrazol-4-yl)-1,2,4-oxadiazol-3-yl]-cyclobutyl}-phenyl)-pyrimidin-2-ylamine] | 0.0011 | 0.15
Cn1ncc(-c2nc(C3(c4ccc(-c5cnc(N)nc5)cc4)CCC3)no2)c1N [Example 7, 5-(4-{1-[5-(5-Amino-1-methyl-1H-pyrazol-4-yl)-1,2,4-oxadiazol-3-yl]-cyclobutyl}-phenyl)-pyrimidin-2-ylamine] | 0.0024 | 0.05
Nc1ncc(-c2ccc(C3(c4noc(-c5cccnn5)n4)CCC3)cc2)cn1 [Example 8, 5-{4-[1-(5-Pyridazin-3-yl-1,2,4-oxadiazol-3-yl)-cyclobutyl]-phenyl}-pyrimidin-2-ylamine] | 0.0085 | 0.4
Nc1ncc(-c2ccc(C3(c4noc(-c5c[nH]c(=O)[nH]5)n4)CCC3)cc2)cn1 [Example 9, 4-(3-{1-[4-(2-Amino-pyrimidin-5-yl)-phenyl]-cyclobutyl}-1,2,4-oxadiazol-5-yl)-1,3-dihydro-imidazol-2-one] | 0.007 | 2
Cc1ncc(-c2nc(C3(c4ccc(-c5cnc(N)nc5)cc4)CCC3)no2)[nH]1 [Example 10, 5-(4-{1-[5-(2-Methyl-3H-imidazol-4-yl)-1,2,4-oxadiazol-3-yl]-cyclobutyl}-phenyl)-pyrimidin-2-ylamine] | 0.0021 | 0.29
Nc1ncc(-c2ccc(C3(c4noc(C(=O)N5CCCC5)n4)CCC3)cc2)cn1 [Example 11, (3-{1-[4-(2-Amino-pyrimidin-5-yl)-phenyl]-cyclobutyl}-1,2,4-oxadiazol-5-yl)-pyrrolidin-1-yl-methanone] | 0.12 | 1.3
Nc1ncc(-c2ccc(C3(c4noc(N5CCCC5)n4)CCC3)cc2)cn1 [Example 12, 5-{4-[1-(5-Pyrrolidin-1-yl-1,2,4-oxadiazol-3-yl)-cyclobutyl]-phenyl}-pyrimidin-2-ylamine] | 0.0083 | 0.47
CCNC(=O)c1nc(C2(c3ccc(-c4cnc(N)nc4)cc3)CCC2)no1 [Example 13, 3-{1-[4-(2-Amino-pyrimidin-5-yl)-phenyl]-cyclobutyl}-1,2,4-oxadiazole-5-carboxylic acid ethylamide] | 0.17 | > 5
CN(C)C(=O)c1nc(C2(c3ccc(-c4cnc(N)nc4)cc3)CCC2)no1 [Example 14, 3-{1-[4-(2-Amino-pyrimidin-5-yl)-phenyl]-cyclobutyl}-1,2,4-oxadiazole-5-carboxylic acid dimethylamide] | 0.057 | > 5
Nc1ncc(-c2ccc(C3(c4noc(-c5c[nH]c(=O)cn5)n4)CCC3)cc2)cn1 [Example 16, 5-(3-{1-[4-(2-Amino-pyrimidin-5-yl)-phenyl]-cyclobutyl}-1,2,4-oxadiazol-5-yl)-1H-pyrazin-2-one] | 0.0033 | > 5
NC(=O)c1ccc(-c2nc(C3(c4ccc(-c5cnc(N)nc5)cc4)CCC3)no2)cn1 [Example 17, 5-(3-{1-[4-(2-Amino-pyrimidin-5-yl)-phenyl]-cyclobutyl}-1,2,4-oxadiazol-5-yl)-pyridine-2-carboxylic acid amide] | 0.0021 | 0.18
Nc1ncc(-c2ccc(C3(c4noc(-c5cnc(N)nc5)n4)CCC3)cc2)cn1 [Example 18, 5-(4-{1-[5-(2-Amino-pyrimidine-5-yl)-1,2,4-oxadiazole-3-yl]-cyclobutyl}-phenyl)-pyrimidin-2-ylamine] | 0.0029 | 0.3
Nc1ncc(-c2ccc(C3(c4noc(-c5nccnc5N)n4)CCC3)cc2)cn1 [Example 19, 5-(4-{1-[5-(3-Amino-pyrazin-2-yl)-1,2,4-oxadiazol-3-yl]-cyclobutyl}-phenyl)-pyrimidin-2-ylamine] | 0.011 | 1.4
Nc1ccc(-c2nc(C3(c4ccc(-c5cnc(N)nc5)cc4)CCC3)no2)cn1 [Example 20, 5-(4-{1-[5-(6-Amino-pyridin-3-yl)-1,2,4-oxadiazol-3-yl]-cyclobutyl}-phenyl)-pyrimidin-2-ylamine] | 0.0019 | 0.063
Cn1ccc(-c2nc(C3(c4ccc(-c5cnc(N)nc5)cc4)CCC3)no2)cc1=O [Example 21, 4-(3-{1-[4-(2-Amino-pyrimidin-5-yl)-phenyl]-cyclobutyl}-1,2,4-oxadiazol-5-yl)-1-methyl-1H-pyridin-2-one] | 0.0031 | 0.16
Cc1cnc(-c2nc(C3(c4ccc(-c5cnc(N)nc5)cc4)CCC3)no2)cn1 [Example 22, 5-(4-{1-[5-(5-Methyl-pyrazin-2-yl)-1,2,4-oxadiazol-3-yl]-cyclobutyl}-phenyl)-pyrimidin-2-ylamine] | 0.0026 | 0.14
Cn1cnc(-c2nc(C3(c4ccc(-c5cnc(N)nc5)cc4)CCC3)no2)c1 [Example 23] | 0.0042 | 0.073
CCNc1nc(C2(c3ccc(-c4cnc(N)nc4)cc3)CCC2)no1 [Example 24, 5-{4-[1-(5-Ethylamino-1,2,4-oxadiazol-3-yl)-cyclobutyl]-phenyl}-pyrimidin-2-ylamine] | 0.011 | 0.46
Nc1ncc(-c2ccc(C3(c4noc(N5CCCC5=O)n4)CCC3)cc2)cn1 [Example 26, 1-(3-{1-[4-(2-Amino-pyrimidin-5-yl)-phenyl]-cyclobutyl}-1,2,4-oxadiazol-5-yl)-pyrrolidin-2-one] | 0.16 | 1.6
CS(=O)(=O)Nc1nc(C2(c3ccc(-c4cnc(N)nc4)cc3)CCC2)no1 [Example 27, N-(3-{1-[4-(2-Amino-pyrimidin-5-yl)-phenyl]-cyclobutyl}-1,2,4-oxadiazol-5-yl)-methanesulfonamide] | 0.34 | > 5
CNC(=O)c1ccc(-c2nc(C3(c4ccc(-c5cnc(N)nc5)cc4)CCC3)no2)cn1 [Example 28, 5-(3-{1-[4-(2-Amino-pyrimidin-5-yl)-phenyl]-cyclobutyl}-1,2,4-oxadiazol-5-yl)-pyridine-2-carboxylic acid methylamide] | 0.0043 | 0.32
CN(C)C(=O)c1ccc(-c2nc(C3(c4ccc(-c5cnc(N)nc5)cc4)CCC3)no2)cn1 [Example 29, 5-(3-{1-[4-(2-Amino-pyrimidin-5-yl)-phenyl]-cyclobutyl}-1,2,4-oxadiazol-5-yl)-pyridine-2-carboxylic acid dimethylamide] | 0.0069 | 0.19
Nc1ncc(-c2ccc(C3(c4noc(-c5ccc(C(=O)N6CCOCC6)nc5)n4)CCC3)cc2)cn1 [Example 30, [5-(3-{1-[4-(2-Amino-pyrimidin-5-yl)-phenyl]-cyclobutyl}-1,2,4-oxadiazol-5-yl)-pyridin-2-yl]-morpholin-4-yl-methanone] | 0.0065 | 0.23
Cn1cc(-c2nc(C3(c4ccc(-c5cnc(N)nc5)cc4)CCC3)no2)ncc1=O [Example 31, 5-(3-{1-[4-(2-Amino-pyrimidin-5-yl)-phenyl]-cyclobutyl}-1,2,4-oxadiazol-5-yl)-1-methyl-1Hpyrazin-2-one] | 0.003 | 1.3
Cn1cccc(-c2nc(C3(c4ccc(-c5cnc(N)nc5)cc4)CCC3)no2)c1=O [Example 32, 3-(3-{1-[4-(2-Amino-pyrimidin-5-yl)-phenyl]-cyclobutyl}-1,2,4-oxadiazol-5-yl)-1-methyl-1Hpyridin-2-one] | 0.0046 | 0.077
